pIC50: −log10 of the molar value.

In assay [1] the target is T1, H3 receptor (Rattus norvegicus, UniProt Q9QYN8).
T1 construct: host or cells: living rat (endogenous receptor)
The conditions noted are these: cited from earlier work.

In the next assay the target is rat H3 receptors (Rattus norvegicus, UniProt Q9QYN8). The conditions noted are these: cited from earlier work.
For assay [2], the target named is T2, human H3 receptor (Homo sapiens, UniProt Q9Y5N1). Put plainly: In vitro H3 binding assay (3H-NαMH competition binding). The conditions noted are these: membranes of CHO-K1 cells expressing human H3; inhibition of specific binding of 2 nM 3H-NαMH; read-out: hH3 binding IC50. Also noted: expressed in transfected cells. As to the method:
The ability of compounds to bind to the H3 receptor was determined by measuring the reduction in tritiated N-α-methyl-histamine (^3H-NαMH) binding in a competition binding assay. Changes in the levels of bound radio-label were monitored by scintillation counting with a Trilux Microbeta (Perkin Elmer).
Membranes were prepared from CHO-K1 cells stably expressing human H3 receptor; routinely grown as monolayers in Ham's F12 medium (Invitrogen) supplemented with 10% Foetal Clone III (Hyclone), 500 μg/ml G418 (Invitrogen), 5 μg/ml blasticidine S (Invivogen) and 50 μg/ml Gentamicin (Sigma) in 5% CO2 at 37° C. Cells were grown to 80-95% confluency, rinsed once with 1×PBS (Invitrogen) and detached by incubating with 1×PBS containing 0.02% EDTA (Sigma) for 10 minutes at room temperature. Cells were collected by centrifugation at 900×g, 4° C. for 10 minutes. Cells were rinsed once with 1×PBS and re-suspended in ice cold homogenisation buffer (50 mM Tris-HCl (pH 7.4), 2.5 mM EDTA, 5 mM MgCl2, 200 mM Sucrose) at 1×10^7 cells/ml and kept on ice. Cells were homogenised on ice and debris removed by centrifugation at 500×g, 4° C. for 5 minutes. The resulting supernatant was centrifuged at 75,600×g, 4° C. for 60 minutes. Membranes were suspended in homogenisation buffer, protein concentration was determined (BCA Protein Assay kit (Pierce)), diluted to 2.2 mg/ml, dispensed into 1 ml aliquots and stored at −80° C.
Membranes were thawed on ice, sonicated with 4 cycles of 20 pulses (50% amplitude, 0.5 pulse) (UP200S Hielscher) on ice, diluted in assay buffer (50 mM Tris-HCl (pH7.4), 5 mM MgCl2) to 62.5 μg/ml. Compound was serially diluted in DMSO before being diluted 1:10 with assay buffer. 5 μg of membrane in 80 μl of assay buffer was added per well of a 96 well polystyrene plate (Corning). 10 μl of compound was added per well. The assay was initiated by the addition of 10 μl of 20 nM ^3H-NαMH per well and incubated for one hour at room temperature with shaking Total binding was determined in the presence of 1% DMSO and non-specific binding was determined by the inclusion of 1 μM R-α-methyl-histamine (RαMH). Incubations were then filtered through filtermat A (Perkin Elmer) and washed three times with assay buffer. Filtermats were dried at 42° C. for two hours, scintillant added and the level of bound radioactivity determined.
IC50 values for compounds were determined from seven point log scale dose-response studies and represent the concentration of compound required to inhibit 50% of the specific binding of 2 nM ^3H-NαMH (difference between total and non-specific binding). Curves were generated using the average of duplicate wells for each data point and analyzed using nonlinear regression of sigmoidal dose response (variable slope).

The target of assay [3] is T2, human H3 receptor. Kind of assay: In vitro H3 functional assay (cAMP response element driven luciferase reporter). The settings on record: CHO(dhfr+)-cre-luc cells expressing human H3; forskolin 1 μM, RαMH 10 nM; read-out: hH3 functional IC50. Also noted: expressed in transfected cells. Format: cell-based. As to the method:
The functional activity of compounds at the H3 receptor was determined by measuring changes in the level of intracellular cAMP using a cAMP response element driven luciferase reporter assay. The changes in luciferase expression were monitored by a luminescence plate reader, Analyst HT (MDS Analytical). Increases in intracellular cAMP were readily detected upon activation of protein kinase A by forskolin (Sigma) and suppression of this response observed with the application of the H3 receptor agonist RαMH (Sigma).
CHO(dhfr^+)-cre-luc cells stably expressing human H3 receptor were routinely grown as monolayers in Minimal Essential Medium α (MEMα) (Invitrogen) supplemented with 10% dialysed FBS (Hyclone), in 5% CO2 at 37° C. 48 hours prior to assay, cells were seeded in clear-base white walled 384-well plates (Corning) at a density of 5000 cells/well. On the day of assay, growth media was removed and replaced with 15 μl of assay buffer (MEMα, 5 mg/ml fatty acid free BSA (Sigma)) per well. Cells were then incubated for 30 minutes at 37° C., 5% CO2. Compound was serially diluted in DMSO before being diluted 1:10 with assay buffer. 2.5 μl of compound diluted in assay buffer was added and cells incubated for 5 minutes at 37° C., 5% CO2. 2.5 μl of each reagent was then added in the following order: RαMH (10 nM), isobutylmethylxanthine (1-methyl-3-(2-methylpropyl)-7H-purine-2,6-dione; IBMX) (500 μM) (Sigma) and forskolin (1 μM). Cells were then incubated for 90 minutes at 37° C., 5% CO2, followed by 30 minutes at room temperature. At the end of incubation 25 μl of Steadylite reagent (Perkin Elmer) was added, plates were sealed and placed on a shaker for 5 minutes. The level of light output to determine the level of luciferase expression was then measured.
IC50 values for compounds were determined from ten point half log scale dose-response studies and represent the concentration of compound required to […] 50% inhibition of forskolin stimulated cells in the presence of RαMH alone. Curves were generated using the average of duplicate wells for each data point and analyzed using nonlinear regression of four parameter dose response.
In general terms: In a reporter assay the amount or activity of a reporter protein is the signal.

Assay [4] has as its target T2, human H3 receptor. The settings on record: cited from earlier work.
Assay [5] has as its target T1, H3 receptor. The conditions noted are these: cited from earlier work. The source holds these as a separate data set.
Assay [6] concerns H3 receptor. The settings on record: a number of acute pain models; cited from earlier work.
Assay [7] has as its target T3, H3 receptor (Mus musculus, UniProt P58406).
T3 construct: host or cells: living mouse (endogenous receptor)
The settings on record: lean and obese mice; cited from earlier work.

The target in assay [8] is T3, H3 receptor. The conditions noted are these: mice; cited from earlier work.

T2 sequence (Q9Y5N1 whole entry): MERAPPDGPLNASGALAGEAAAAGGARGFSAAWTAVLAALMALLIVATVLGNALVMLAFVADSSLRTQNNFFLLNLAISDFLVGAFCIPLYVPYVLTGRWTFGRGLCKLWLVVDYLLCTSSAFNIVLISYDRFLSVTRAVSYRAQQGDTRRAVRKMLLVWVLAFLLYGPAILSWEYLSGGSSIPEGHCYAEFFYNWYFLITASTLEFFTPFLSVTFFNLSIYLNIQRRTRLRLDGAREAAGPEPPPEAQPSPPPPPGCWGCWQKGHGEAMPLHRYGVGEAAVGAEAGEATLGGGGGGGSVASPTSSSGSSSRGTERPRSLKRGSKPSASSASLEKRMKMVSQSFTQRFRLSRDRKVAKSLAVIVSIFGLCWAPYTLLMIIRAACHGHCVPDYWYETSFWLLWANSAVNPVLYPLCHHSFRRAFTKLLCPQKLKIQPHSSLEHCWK
T1 sequence (Q9QYN8 whole entry): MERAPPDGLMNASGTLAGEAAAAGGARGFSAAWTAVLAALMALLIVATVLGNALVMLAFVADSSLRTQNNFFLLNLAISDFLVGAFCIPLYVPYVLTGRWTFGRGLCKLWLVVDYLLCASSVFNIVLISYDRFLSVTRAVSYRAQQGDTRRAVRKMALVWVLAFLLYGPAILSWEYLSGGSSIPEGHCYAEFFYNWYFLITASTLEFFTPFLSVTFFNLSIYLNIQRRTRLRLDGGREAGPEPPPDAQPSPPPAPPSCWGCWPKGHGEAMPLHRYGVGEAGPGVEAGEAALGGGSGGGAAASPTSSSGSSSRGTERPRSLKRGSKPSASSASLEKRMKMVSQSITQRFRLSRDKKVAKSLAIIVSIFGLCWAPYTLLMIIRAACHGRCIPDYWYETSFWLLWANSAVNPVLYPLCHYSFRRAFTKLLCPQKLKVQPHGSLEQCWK
T3 sequence (P58406 whole entry): as the sequence (Q9QYN8 whole entry) above, with T15A, A286T, A290G, R387H, I389V counted along it
Sequence of rat H3 receptors (Q9QYN8 whole entry): as the sequence (Q9QYN8 whole entry) above

As for `CNC(=O)c1cnc(Oc2ccc3c(c2)CCN(C2CCC2)CC3)cn1` [GSK207040], the tactile allodynia result on H3 receptor [1] is “reduced tactile allodynia”. The “affinity for rat H3 receptors” value at rat H3 receptors is recorded as “high affinity”. As usually defined, the pIC50 is the negative decadic logarithm of the IC50, by convention in mol/L. Regarding `O=C(NCc1ccc2c(c1)CCN(C1CCC1)CC2)c1cnc(N2CCC(F)(F)CC2)nc1` [Example 5, N-((3-cyclobutyl-2,3,4,5-tetrahydro-1H-3-benzazepin-7-yl)methyl)-2-(4,4-difluoropiperidin-1-yl)pyrimidine-5-carboxamide], the pIC50 on human H3 receptor [2] was 9.00; on human H3 receptor [3], 8.52. Turning to `CC(C)N1CCCN(C(=O)C2CCN(c3ccc(C(F)(F)F)nc3)CC2)CC1` [GSK334429], the tactile allodynia result on H3 receptor [1] is given as “reduced tactile allodynia”. In addition, the “affinity for rat H3 receptors” value at rat H3 receptors is reported as “high affinity”. Moreover, on human H3 receptor [4], the “affinity for human H3 receptors” value is on record as “high affinity”. Turning to `CO[C@H]1CCN(c2ncc(C(=O)NCc3ccc4c(c3)CCN(C3CCC3)CC4)cn2)C1` [Example 2, N-[(3-cyclobutyl-2,3,4,5-tetrahydro-1H-3-benzazepin-7-yl)methyl]-2-[(3S)-3-methoxypyrrolidin-1-yl]pyrimidine-5-carboxamide], the negative logarithm of the IC50 (pIC50) on human H3 receptor [2] and on human H3 receptor [3] was 8.70 in each case.

Turning to `CO[C@@H]1CCN(c2ncc(C(=O)N(C)Cc3ccc4c(c3)CCN(C3CCC3)CC4)cn2)C1` [Example 7, N-[(3-cyclobutyl-2,3,4,5-tetrahydro-1H-3-benzazepin-7-yl)methyl]-2-[(3R)-3-methoxypyrrolidin-1-yl]-N-methylpyrimidine-5-carboxamide], the negative logarithm of the IC50 (pIC50) is 8.30 on human H3 receptor [2] and 8.22 on human H3 receptor [3]. On the same counts, the results for `CO[C@@H](C)CN(C)c1ncc(C(=O)NCc2ccc3c(c2)CCN(C2CCC2)CC3)cn1` [Example 8, N-[(3-cyclobutyl-2,3,4,5-tetrahydro-1H-3-benzazepin-7-yl)methyl]-2-{[(2S)-2-methoxypropyl](methyl)amino}pyrimidine-5-carboxamide] are 9.14 and 8.70.

For `CO[C@H]1CCN(c2ncc(C(=O)N(C)Cc3ccc4c(c3)CCN(C3CCC3)CC4)cn2)C1` [Example 6, N-[(3-cyclobutyl-2,3,4,5-tetrahydro-1H-3-benzazepin-7-yl)methyl]-2-[(3S)-3-methoxypyrrolidin-1-yl]-N-methylpyrimidine-5-carboxamide], the figures for the negative logarithm of the IC50 (pIC50) at human H3 receptor [2] and at human H3 receptor [3] were 8.40 and 8.70, respectively.

Turning to `CO[C@@H]1CCN(c2ncc(C(=O)NCc3ccc4c(c3)CCN(C3CCC3)CC4)cn2)C1` [Example 1, N-[(3-cyclobutyl-2,3,4,5-tetrahydro-1H-3-benzazepin-7-yl)methyl]-2-[(3R)-3-methoxypyrrolidin-1-yl]pyrimidine-5-carboxamide], the pIC50 is 9.30 at human H3 receptor [2] and 9.00 at human H3 receptor [3]. Consider `C[C@H]1CC[C@H](C)N1CCCOc1ccc(-c2ccc(C(=O)N3CCOCC3)cc2)cc1` [Example A-349821], for which, at H3 receptor [5], the cognition-enhancing effects entry was “cognition-enhancing effects”.

Consider `O=C(NCc1ccc2c(c1)CCN(C1CCC1)CC2)c1cnc(N2CCC(F)(F)C2)nc1` [Example 4, N-[(3-cyclobutyl-2,3,4,5-tetrahydro-1H-3-benzazepin-7-yl)methyl]-2-(3,3-difluoropyrrolidin-1-yl)pyrimidine-5-carboxamide], for which the negative-log IC50 (pIC50) on human H3 receptor [2] is 8.70; at human H3 receptor [3] it was 8.52. Turning to `CO[C@H](C)CN(C)c1ncc(C(=O)NCc2ccc3c(c2)CCN(C2CCC2)CC3)cn1` [Example 9, N-[(3-cyclobutyl-2,3,4,5-tetrahydro-1H-3-benzazepin-7-yl)methyl]-2-{[(2R)-2-methoxypropyl](methyl)amino}pyrimidine-5-carboxamide], the pIC50 is 8.40 on human H3 receptor [2] and 8.10 at human H3 receptor [3]. `S=C(NC1CCCCC1)N1CCC(c2cnc[nH]2)CC1` [thioperamide]: the antinociceptive effect result in the assay with H3 receptor [6] was “antinociceptive effect”. On to `NC(=NCc1ccc(Cl)cc1)SCCCc1cnc[nH]1` [clobenpropit], for which the energy intake result at H3 receptor [7] is recorded as “reducing energy intake”. The “histamine release in the hypothalamus” value at H3 receptor [8] is recorded as “increases histamine release”. Turning to `COC1CN(c2ncc(C(=O)NCc3ccc4c(c3)CCN(C3CCC3)CC4)cn2)C1` [Example 3, N-((3-cyclobutyl-2,3,4,5-tetrahydro-1H-3-benzazepin-7-yl)methyl)-2-(3-methoxyazetidin-1-yl)pyrimidine-5-carboxamide], the values for the pIC50 on human H3 receptor [2] and at human H3 receptor [3] were 8.52 and 8.70, respectively.
